Results on two molecules are retold here after patent US9175320B2, “Processes for the preparation of (R)-2-(7-4-cyclopentyl-3-(trifluoromethyl)benzyloxy)-1,2,3,4-tetrahydrocyclopenta[B]indol-3-yl)acetic acid and salts thereof” (ARENA PHARMACEUTICALS, INC., priority 2010, dated 2015).

For one data set, the target named is S1P1 receptor (Homo sapiens (Human), UniProt P21453). As to the kind of experiment: HTRF assay for direct cAMP measurement. Type of data set: cell-based. To be noted: recombinant CHO-K1 cells stably transfected with S1P1. From the text:
CHO-K1 cells were obtained from ATCC® (Manassas, Va.; Catalog #CCL-61). […] The HTRF® assay has been used to determine EC50 values for S1P1 receptor agonists. Principle of the assay: HTRF® assay kit was purchased from Cisbio-US, Inc. (Bedford, Mass.; Catalog #62AM4PEC). The HTRF® assay supported by the kit is a competitive immunoassay between endogenous cAMP produced by the CHO-K1 cells and tracer cAMP labeled with the dye d2. The tracer binding is visualized by a monoclonal anti-cAMP antibody labeled with Cryptate. The specific signal (i.e., fluorescence resonance energy transfer, FRET) is inversely proportional to the concentration of unlabeled cAMP in the standard or sample. Standard curve: The fluorescence ratio (665 nm/620 nm) of the standards (0.17 to 712 nM cAMP) included in the assay was calculated and used to generate a cAMP standard curve according to the kit manufacturer's instructions. The fluorescence ratio of the samples (test compound or compound buffer) was calculated and used to deduce respective cAMP concentrations by reference to the cAMP standard curve. […] The plate was then further incubated at room temperature for 1 hour, after which the assay plate was read. Assay readout: HTRF® readout was accomplished using a PHERAstar (BMG LABTECH Inc., Durham, N.C.) or EnVision™ (PerkinElmer, Fremont Calif.) microplate reader.

In the next data set the test system is BALB/c mice. The data set can be described thus: Mouse Peripheral Lymphocyte Lowering (PLL) assay. Type of data set: in vivo. To be noted: 1.00 mg/kg oral dose, 5 hours post-dose, male BALB/c mice, vs vehicle (FIG. 1). As to the method: Animals: Male BALB/c mice (Charles River Laboratories, Wilmington, Mass.) were housed four per cage and maintained in a humidity-controlled (40 to 60%) and temperature-controlled (68 to 72° F.) facility on a 12 h:12 h light/dark cycle (lights on at 6:30 am) with free access to food (Harlan Teklad, Orange, Calif., Rodent Diet 8604) and water. Mice were allowed one week of habituation to the animal facility before testing. PLL Assay: […] Peripheral blood samples were collected at 5 hours post-dose. The mice were anesthetized with isoflurane and blood was collected via cardiac puncture. A complete cell count (CBC), including lymphocyte count, was obtained using a CELL-DYN® 3700 (Abbott Laboratories, Abbott Park, Ill.) instrument. Results are presented in FIG. 1, in which peripheral blood lymphocyte (PBL) count is shown for the 5 hour group.

The test system of data set [1] is Sprague-Dawley rats. As to the kind of experiment: Rat Peripheral Lymphocyte Lowering (PLL) assay. Type of data set: in vivo. To be noted: 1.00 mg/kg oral dose, 5 hours post-dose, male Sprague-Dawley rats, vs vehicle (FIG. 2). As to the method: Animals: Male Sprague-Dawley rats (7 weeks of age at start of study) (Charles River Laboratories) were housed two per cage and maintained in a humidity-controlled (40-60%) and temperature-controlled (68-72° F.) facility on a 12 h: 12 h light/dark cycle (lights on at 6:30 am) with free access to food (Harlan Teklad, Orange, Calif., Rodent Diet 8604) and water. Rats were allowed one week of habituation to the animal facility before testing. PLL Assay: […] Peripheral blood samples were collected at 5 hours post-dose. Blood was collected via indwelling catheter. A complete cell count (CBC), including lymphocyte count, was obtained using a CELL-DYN® 3700 (Abbott Laboratories, Abbott Park, Ill.) instrument. Results are presented in FIG. 2, in which peripheral blood lymphocyte (PBL) count is shown for the 5 hour group.

Another data set concerns Female Lewis rats. The data set can be described thus: Collagen-induced arthritis rat model. It is filed as in vivo. To be noted: 0.3, 1 and 3 mg/kg p.o., q.d., day 0 through day 16 (FIG. 3). As to the method: Female Lewis rats were used in this study. Acclimated animals were anesthetized with isoflurane and given the first collagen injection (day 0). On day 6, they were anesthetized again for the second collagen injection. Collagen was prepared by making a 4 mg/mL solution in 0.01N acetic acid. Equal volumes of collagen and incomplete Freund's adjuvant were emulsified by hand mixing until a bead of this material held its form when placed in water. Each animal received 300 μL of the mixture each time, spread over 3 subcutaneous sites on the back. Treatment (p.o., q.d., 5 mL/kg dosing volume) began on day 0 and continued through day 16 with vehicle or compounds given at 24 h intervals. Rats were weighed on days 0, 3, 6 and 9 through 17 and caliper measurements of the ankles taken on days 9 through 17.

In data set [2] the test system is C57BL/6 mice. The data set can be described thus: MOG-induced experimental autoimmune encephalomyelitis (EAE) in mice. Type of data set: in vivo, mouse. To be noted: 0.3, 1 and 3 mg/kg orally once a day from day 3 until day 21 (FIG. 4).
Data set [3] has as its system Sprague-Dawley rats. As to the kind of experiment: Cardiac telemetry in the rat (bradycardia assay). It is filed as in vivo. To be noted: oral, vehicle PEG400, heart rate measured over a 120 min period, vs vehicle. The procedure: Animals: Male Sprague-Dawley rats (250-300 g at time of surgery) were implanted by Charles River Laboratories (Wilmington, Mass.) with cardiac transmitting devices (Data Sciences PhysioTel C50-PXT) into the peritoneal space, with a pressure-sensing catheter inserted into the descending aorta. Rats are allowed at least one week to recover. Rats were housed in individual cages and maintained in a humidity-controlled (30-70%) and temperature-controlled (20-22° C.) facility on a 12 h:12 h light/dark cycle (lights on at 7:00 am) with free access to food (Harlan-Teklad, Orange, Calif., Rodent Diet 8604) and water. Rats were allowed one week of habituation to the animal facility before testing. Measurement of cardiovascular parameters: The implanted transmitting devices transmitted continuous measurements of blood pressure (systolic, diastolic, mean arterial, pulse), heart rate, body temperature, and motor activity in freely moving conscious animals. […] Telemetry recording occurred over a 21-h period, starting at noon and continuing until 9:00 am the following day. A maximum of eight rats were tested at a time, and the same eight rats were utilized for all treatment groups in a within-subject design. Drug treatment: […] A full study (vehicle+3 doses) required four separate testing sessions, which occur on Mondays-Tuesdays and Thursdays-Fridays. […]

The conditions of data set [4]: Hale et al. 2004; cited from earlier work.
For a further data set, the target named is S1P3 receptor (Homo sapiens (Human), UniProt Q99500). To be noted: due to agonism of the S1P3 receptor; cited from earlier work.
Data set [5] concerns patients with multiple sclerosis. To be noted: Phase II, relapsing-remitting multiple sclerosis; cited from earlier work.
In data set [6] the test system is dendritic cells infected with Francisella tularensis. To be noted: Bar-Haim et al. 2008; cited from earlier work.
For data set [7] the following is noted: short-term high dose; cited from earlier work.
Data set [8] concerns mice. To be noted: by reducing the number of mature osteoclasts attached to the bone surface; cited from earlier work.
The test system of data set [9] is mice. To be noted: oral administration to mice; cited from earlier work.
The conditions of data set [10]: spared nerve injury model; cited from earlier work.
Data set [11] deals with mice. To be noted: murine; cited from earlier work.
For data set [12], the system named is C57BL/6 mice. To be noted: prophylactic oral administration, 1 mg/kg, three times a week; cited from earlier work.

As usually defined, the EC50 is the concentration needed to bring the measured effect to its halfway point.

Sequence of S1P1 receptor (P21453 whole entry): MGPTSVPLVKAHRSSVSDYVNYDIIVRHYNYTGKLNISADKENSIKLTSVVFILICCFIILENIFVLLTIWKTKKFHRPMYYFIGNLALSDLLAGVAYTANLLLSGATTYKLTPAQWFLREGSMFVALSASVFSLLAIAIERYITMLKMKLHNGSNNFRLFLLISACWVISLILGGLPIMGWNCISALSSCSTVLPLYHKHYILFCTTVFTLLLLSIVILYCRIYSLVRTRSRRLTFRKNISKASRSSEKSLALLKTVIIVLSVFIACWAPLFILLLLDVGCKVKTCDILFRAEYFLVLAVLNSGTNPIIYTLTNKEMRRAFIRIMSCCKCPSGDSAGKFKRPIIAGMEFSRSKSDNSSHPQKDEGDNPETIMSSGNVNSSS
Sequence of S1P3 receptor (Q99500 whole entry): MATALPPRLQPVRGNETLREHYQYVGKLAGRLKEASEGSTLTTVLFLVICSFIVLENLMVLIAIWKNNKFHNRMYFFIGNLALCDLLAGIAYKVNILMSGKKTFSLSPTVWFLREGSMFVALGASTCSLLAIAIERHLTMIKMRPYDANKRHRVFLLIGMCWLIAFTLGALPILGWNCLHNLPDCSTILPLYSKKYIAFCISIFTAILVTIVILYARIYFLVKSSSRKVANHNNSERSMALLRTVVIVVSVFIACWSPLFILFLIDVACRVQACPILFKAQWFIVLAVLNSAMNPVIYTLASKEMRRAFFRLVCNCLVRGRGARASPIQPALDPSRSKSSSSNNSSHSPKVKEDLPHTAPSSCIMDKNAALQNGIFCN

With `O=C(O)C[C@H]1CCc2c1[nH]c1ccc(OCc3ccc(C4CCCC4)c(C(F)(F)F)c3)cc21` [(R)-2-(7-(4-cyclopentyl-3-(trifluoromethyl)benzyloxy)-1,2,3,4-tetrahydrocyclopenta[b]indol-3-yl)acetic acid], the “S1P1 receptor agonism (decreased cAMP concentration)” value on S1P1 receptor is recorded as “agonist of the S1P1 receptor”. The EC50 at S1P1 receptor (n = 22) turned out to be 0.102 nM. Further, the “peripheral blood lymphocyte (PBL) count lowering” value with BALB/c mice and in the data set on Sprague-Dawley rats [1] was “exhibited activity for inducing PBL lowering (lymphopenia)” in each case. Further, the mean ankle diameter result with Female Lewis rats was “exhibited activity for reducing mean ankle diameter”. Further, the “severity of disease symptoms (clinical score) in EAE” value in the data set on C57BL/6 mice [2] is recorded as “exhibited activity in the mouse EAE assay”. Moreover, the “heart rate (bradycardia)” value with Sprague-Dawley rats [3] was “no or substantially no reduction of heart rate”.
Consider `CCCCCCCCc1ccc(CCC(N)(CO)CO)cc1` [FTY720], for which the “induction of lymphopenia (PLL)” value in [4] was “rapidly and reversibly induce lymphopenia”. In addition, the “adverse event in clinical trials” value on S1P3 receptor is reported as “transient asymptomatic bradycardia”. The “MRI lesions and clinical disease activity” value in data set [5] was “reduce the number of lesions detected by magnetic resonance imaging (MRI) and clinical disease activity”. In addition, the “migration of infected dendritic cells to the mediastinal lymph node” value in data set [6] was “impair migration of dendritic cells infected with Francisella tularensis to the mediastinal lymph node”. Moreover, in [7], the ocular infiltrates entry was “rapidly reduced ocular infiltrates”. Further, the ovariectomy-induced osteoporosis entry in the data set with mice [8] was “relieved ovariectomy-induced osteoporosis”. The VEGF-induced vascular permeability result with mice [9] is reported as “potently blocked VEGF-induced vascular permeability”. The nociceptive behavior result in data set [10] is “reduce the nociceptive behavior”. Moreover, the “initiation of contact hypersensitivity” value with mice [11] was “impair initiation of murine contact hypersensitivity (CHS)”. Moreover, in the data set with C57BL/6 mice [12], the “development of EAMG” value is listed as “completely prevented the development of experimental autoimmune myasthenia gravis (EAMG)”.
